Structures are written as SMILES. Where two headings read alike, the source gives them in different places.

One data set has as its target SHP2 (Homo sapiens (Human), UniProt Q06124). The data set can be described thus: pNPP hydrolysis enzyme assay, SHP2. The format is biochemical. On the procedure: (§1) Enzyme kinetic assay. PTP activity was assayed using p-nitrophenyl phosphate (pNPP) as a substrate in 3,3-dimethylglutarate buffer (50 mM 3,3-dimethylglutarate, pH 7.0, 1 mM EDTA, 150 mM NaCl, 2 mM DTT, 0.1 mg/mL BSA) at 25° C. The assays were performed in 96-well plates. Normally, to determine the IC50 values, the reaction was initiated by the addition of enzyme (final concentration at 10 nM) to a reaction mixture (0.2 mL) containing 2 mM (Km for the substrate) pNPP with various concentrations of inhibitors. The reaction rate was measured using a SpectraMax Plus 384 Microplate Spectrophotometer (Molecular Devices). To determine the mode of inhibition, the reactions were initiated by the addition of PTP-MEG2 to the reaction mixtures (0.2 mL) containing various concentrations of pNPP with different concentrations of the inhibitor 7. Data were fitted using SigmaPlot Enzyme Kinetics Module (Systat Software, Inc.).

The subject of the next data set is HepG2 hepatocytes. The data set can be described thus: Insulin signaling in HepG2 hepatocytes. The class given is cell-based. To be noted: HepG2, 1 hour pretreatment, 10 nM insulin 30 min. On the procedure: (§2) Cell lysate (20 μg protein) was subjected to 10% SDS-PAGE and probed with phospho-Akt, phospho-IR (Y1162/1163) or Akt antibody, respectively. […] Cell lysate (20 μg protein) was subjected to 10% SDS-PAGE and probed with phospho-IR(Y1162/1163), phospho-Akt (pS473) or total Akt antibody, respectively. […] Cell lysate (20 μg protein) or insulin receptor immunoprecipitation beads were subjected to 10% SDS-PAGE and probed with phospho-Akt, Akt, insulin receptor beta or phospho-tyrosine antibody (4G10), respectively. The non-specific band from insulin receptor immunoprecipitates served as a loading control for insulin receptor and phospho-insulin receptor.
(§3) Western blot analysis. Cells were homogenized in the lysis buffer (50 mM Hepes, pH 7.5, 150 mM NaCl, 10% Glycerol, 1% Triton X-100, 1.5 mM MgCl2, 1 mM EGTA, 10 μM Sodium Pyrophosphate, 100 mM sodium fluoride and freshly added 100 μM sodium vanadate, 1 mM PMSF, 10 μg/ml Aprotinin, and 10 μg/mL Leupeptin). Protein extracts were resolved on an SDS-PAGE gel and transferred to nitrocellulose membrane. […] Protein signals were detected by incubation with HRP-conjugated secondary antibodies, followed by ECL detection reagent (Pierce). Western blots were scanned and quantified using the Quantity One software (Bio-Rad).

In a further data set the target is FAP1 (Homo sapiens (Human), UniProt Q12923). The data set can be described thus: pNPP hydrolysis enzyme assay, FAP1. The format is biochemical. On the procedure: as §1
Another data set has as its target PTPH1 (Homo sapiens (Human), UniProt P26045). The data set can be described thus: pNPP hydrolysis enzyme assay, PTPH1. The class given is biochemical. On the procedure:
as §1

The nature of data set [1]: Pharmacokinetics in mouse plasma. The format is in vivo. To be noted: for Cmax: mouse plasma. How it is done: Pharmacokinetic parameters for Compound 7. Compound 7 was quantified in mouse plasma using protein precipitation, internal standardization, and HPLC-MS/MS. Acetone was used to precipitate proteins and Compound 8 was the internal standard. Compound 7 and Compound 8 were separated using a C8 50×4.6 mm 5 um (Restek Ultra) HPLC column and a gradient mobile phase (acetonitrile:5 mM ammonium acetate). Compounds were detected using ESI in positive mode (Thermo Quantum Ultra; Thermo Fisher). The Q1/Q3 for Compound 7 and Compound 8 were 1087/300 and 957/231, respectively. The lower limit of quantification was 100 ng/mL using 20 μL of mouse plasma.
Pharmacokinetic parameters were estimated for Compound 7 after 5 mg/kg intravenous and 20 mg/kg intraperitoneal dosage, respectively. These parameters including area under the curve (AUC), area under the first moment curve (AUMC) and the elimination rate constant, kel, were estimated using noncompartmental methods with add-ins on Excel®. The maximum plasma concentration (Cmax) was obtained from the data. For the intravenous injection, the Cmax was estimated by extrapolating the data to zero time. The terminal half-life, t1/2, was estimated with 0.693/kel. The AUC from the last concentration, Clast, to infinity was estimated by Clast/kel. The systemic clearance (Cl or Cl/F) was calculated with dose/AUC0-∞ and the volume of distribution at steady state (Vdss or Vdss/F) was calculated using the Cl and the mean residence time (MRT; MRT=(Dose/AUC)×(AUMC/AUC)). The bioavailability (F) was estimated by comparing the Cl of intravenous and intraperitoneal injections.

The target in the next data set is TC-PTP (Homo sapiens (Human), UniProt P17706). The data set can be described thus: pNPP hydrolysis enzyme assay, TC-PTP. The format is biochemical. To be noted: for IC50: pNPP substrate. How it is done: as §1
Data set [2] deals with diet-induced obese C57BL/6 mice. The data set can be described thus: Glucose tolerance test in diet-induced obese mice. The note with it: 5 mg/kg i.p. twice a day. On the procedure:
C57BL/6J mice were fed a high-fat diet for 10 weeks before Compound 7 or vehicle was injected intraperitoneally twice a day at a dose of 5 mg/kg body weight. FIG. 5A depicts insulin tolerance tests (ITT) performed on Day 7 by injecting intraperitoneally a bolus of 0.75 unit/kg of human regular insulin. […] FIG. 5C depicts glucose tolerance tests (GTT) carried out on Day 9 after a bolus of 1 g/kg glucose was injected intraperitoneally. […] FIG. 5E depicts pyruvate tolerance tests (PTT) performed on Day 12 after an injection of 2 g/kg pyruvate solution. […] At the end of 2-week injections of Compound 7, animals were fasted overnight and stimulated with a bolus of 1 unit of human regular insulin or saline via vena cava. Three minutes later, liver, skeletal muscle, and white adipose tissue (WAT) were collected sequentially for insulin signaling analysis. FIG. 5G depicts the phosphorylation of Tyr1162/1163 in insulin receptor (IR) and Ser473 phosphorylation in Akt kinases and the corresponding proteins in the liver, skeletal muscle, and white adipose tissue (WAT) were analyzed by immunoblots.
To this end, we intraperitoneally injected Compound 7 into diet-induced obese C57BL/6 mice at a dose of 5 mg/kg twice a day. […] After 7 days of injections, we performed insulin tolerance tests to measure insulin sensitivity in vehicle and Compound 7 treated mice.

For a further data set, the system named is C2C12 myotubes. The data set can be described thus: Insulin signaling in C2C12 myotubes. The format is cell-based. The note with it: 1 hour pretreatment, 100 nM insulin 30 min. On the procedure: as §2, §3
[3] abbreviates: mouse, 20 mg/Kg intraperitoneal injection.
[4] abbreviates: plasma, mouse, 5 mg/Kg intravenous injection.

TC-PTP, sequence (P17706 whole entry, looked up, species assumed): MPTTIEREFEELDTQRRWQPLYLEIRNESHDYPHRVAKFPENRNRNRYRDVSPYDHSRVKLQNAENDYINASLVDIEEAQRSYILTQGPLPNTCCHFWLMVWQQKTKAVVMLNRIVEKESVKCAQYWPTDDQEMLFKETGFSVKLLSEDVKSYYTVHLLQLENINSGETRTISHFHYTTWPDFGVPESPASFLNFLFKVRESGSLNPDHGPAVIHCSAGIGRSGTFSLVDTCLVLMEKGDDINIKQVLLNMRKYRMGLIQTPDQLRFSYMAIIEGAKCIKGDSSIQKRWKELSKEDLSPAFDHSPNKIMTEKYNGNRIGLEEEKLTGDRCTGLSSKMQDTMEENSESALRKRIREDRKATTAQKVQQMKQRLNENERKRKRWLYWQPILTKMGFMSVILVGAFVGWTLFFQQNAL
SHP2, sequence (Q06124 whole entry, species assumed): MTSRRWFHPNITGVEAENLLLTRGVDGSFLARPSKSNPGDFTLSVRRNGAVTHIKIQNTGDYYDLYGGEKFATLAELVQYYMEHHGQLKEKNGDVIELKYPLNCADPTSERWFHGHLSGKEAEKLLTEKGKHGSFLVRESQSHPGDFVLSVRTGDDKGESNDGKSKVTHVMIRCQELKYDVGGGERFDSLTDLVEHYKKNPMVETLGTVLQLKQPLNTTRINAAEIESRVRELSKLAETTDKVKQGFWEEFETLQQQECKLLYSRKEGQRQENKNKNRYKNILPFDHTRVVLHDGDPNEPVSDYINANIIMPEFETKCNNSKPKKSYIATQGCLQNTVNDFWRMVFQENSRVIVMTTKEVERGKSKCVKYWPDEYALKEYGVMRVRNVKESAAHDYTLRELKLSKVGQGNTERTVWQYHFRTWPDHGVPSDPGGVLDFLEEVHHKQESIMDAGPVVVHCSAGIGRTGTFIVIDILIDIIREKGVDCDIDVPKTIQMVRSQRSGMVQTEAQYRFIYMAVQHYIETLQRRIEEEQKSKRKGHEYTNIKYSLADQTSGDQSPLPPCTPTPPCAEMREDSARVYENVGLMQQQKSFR
PTPH1, sequence (P26045 whole entry, species assumed): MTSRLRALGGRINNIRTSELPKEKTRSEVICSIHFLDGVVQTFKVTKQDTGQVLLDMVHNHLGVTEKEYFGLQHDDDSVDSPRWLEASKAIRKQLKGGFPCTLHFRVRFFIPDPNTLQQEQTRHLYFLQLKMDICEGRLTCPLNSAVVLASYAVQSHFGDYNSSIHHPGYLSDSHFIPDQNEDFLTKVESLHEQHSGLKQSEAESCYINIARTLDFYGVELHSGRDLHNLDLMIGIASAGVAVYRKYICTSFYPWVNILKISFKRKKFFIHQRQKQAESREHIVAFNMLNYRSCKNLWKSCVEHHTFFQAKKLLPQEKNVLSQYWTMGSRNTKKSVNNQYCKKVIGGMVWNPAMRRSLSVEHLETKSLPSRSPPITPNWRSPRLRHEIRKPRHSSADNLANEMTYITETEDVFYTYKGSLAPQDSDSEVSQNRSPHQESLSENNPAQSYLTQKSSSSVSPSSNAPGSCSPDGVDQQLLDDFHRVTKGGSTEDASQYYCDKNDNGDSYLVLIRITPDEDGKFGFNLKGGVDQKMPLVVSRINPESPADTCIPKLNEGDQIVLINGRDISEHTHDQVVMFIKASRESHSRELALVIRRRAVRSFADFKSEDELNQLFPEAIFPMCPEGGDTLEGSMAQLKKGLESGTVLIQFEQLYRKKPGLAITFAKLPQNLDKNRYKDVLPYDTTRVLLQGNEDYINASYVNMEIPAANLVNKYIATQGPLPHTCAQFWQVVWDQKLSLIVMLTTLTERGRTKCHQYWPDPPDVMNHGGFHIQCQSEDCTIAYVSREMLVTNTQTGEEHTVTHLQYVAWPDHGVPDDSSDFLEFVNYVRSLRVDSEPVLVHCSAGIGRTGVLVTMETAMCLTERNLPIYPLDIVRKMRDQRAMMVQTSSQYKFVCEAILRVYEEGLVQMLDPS
FAP1, sequence (Q12923 whole entry, species assumed): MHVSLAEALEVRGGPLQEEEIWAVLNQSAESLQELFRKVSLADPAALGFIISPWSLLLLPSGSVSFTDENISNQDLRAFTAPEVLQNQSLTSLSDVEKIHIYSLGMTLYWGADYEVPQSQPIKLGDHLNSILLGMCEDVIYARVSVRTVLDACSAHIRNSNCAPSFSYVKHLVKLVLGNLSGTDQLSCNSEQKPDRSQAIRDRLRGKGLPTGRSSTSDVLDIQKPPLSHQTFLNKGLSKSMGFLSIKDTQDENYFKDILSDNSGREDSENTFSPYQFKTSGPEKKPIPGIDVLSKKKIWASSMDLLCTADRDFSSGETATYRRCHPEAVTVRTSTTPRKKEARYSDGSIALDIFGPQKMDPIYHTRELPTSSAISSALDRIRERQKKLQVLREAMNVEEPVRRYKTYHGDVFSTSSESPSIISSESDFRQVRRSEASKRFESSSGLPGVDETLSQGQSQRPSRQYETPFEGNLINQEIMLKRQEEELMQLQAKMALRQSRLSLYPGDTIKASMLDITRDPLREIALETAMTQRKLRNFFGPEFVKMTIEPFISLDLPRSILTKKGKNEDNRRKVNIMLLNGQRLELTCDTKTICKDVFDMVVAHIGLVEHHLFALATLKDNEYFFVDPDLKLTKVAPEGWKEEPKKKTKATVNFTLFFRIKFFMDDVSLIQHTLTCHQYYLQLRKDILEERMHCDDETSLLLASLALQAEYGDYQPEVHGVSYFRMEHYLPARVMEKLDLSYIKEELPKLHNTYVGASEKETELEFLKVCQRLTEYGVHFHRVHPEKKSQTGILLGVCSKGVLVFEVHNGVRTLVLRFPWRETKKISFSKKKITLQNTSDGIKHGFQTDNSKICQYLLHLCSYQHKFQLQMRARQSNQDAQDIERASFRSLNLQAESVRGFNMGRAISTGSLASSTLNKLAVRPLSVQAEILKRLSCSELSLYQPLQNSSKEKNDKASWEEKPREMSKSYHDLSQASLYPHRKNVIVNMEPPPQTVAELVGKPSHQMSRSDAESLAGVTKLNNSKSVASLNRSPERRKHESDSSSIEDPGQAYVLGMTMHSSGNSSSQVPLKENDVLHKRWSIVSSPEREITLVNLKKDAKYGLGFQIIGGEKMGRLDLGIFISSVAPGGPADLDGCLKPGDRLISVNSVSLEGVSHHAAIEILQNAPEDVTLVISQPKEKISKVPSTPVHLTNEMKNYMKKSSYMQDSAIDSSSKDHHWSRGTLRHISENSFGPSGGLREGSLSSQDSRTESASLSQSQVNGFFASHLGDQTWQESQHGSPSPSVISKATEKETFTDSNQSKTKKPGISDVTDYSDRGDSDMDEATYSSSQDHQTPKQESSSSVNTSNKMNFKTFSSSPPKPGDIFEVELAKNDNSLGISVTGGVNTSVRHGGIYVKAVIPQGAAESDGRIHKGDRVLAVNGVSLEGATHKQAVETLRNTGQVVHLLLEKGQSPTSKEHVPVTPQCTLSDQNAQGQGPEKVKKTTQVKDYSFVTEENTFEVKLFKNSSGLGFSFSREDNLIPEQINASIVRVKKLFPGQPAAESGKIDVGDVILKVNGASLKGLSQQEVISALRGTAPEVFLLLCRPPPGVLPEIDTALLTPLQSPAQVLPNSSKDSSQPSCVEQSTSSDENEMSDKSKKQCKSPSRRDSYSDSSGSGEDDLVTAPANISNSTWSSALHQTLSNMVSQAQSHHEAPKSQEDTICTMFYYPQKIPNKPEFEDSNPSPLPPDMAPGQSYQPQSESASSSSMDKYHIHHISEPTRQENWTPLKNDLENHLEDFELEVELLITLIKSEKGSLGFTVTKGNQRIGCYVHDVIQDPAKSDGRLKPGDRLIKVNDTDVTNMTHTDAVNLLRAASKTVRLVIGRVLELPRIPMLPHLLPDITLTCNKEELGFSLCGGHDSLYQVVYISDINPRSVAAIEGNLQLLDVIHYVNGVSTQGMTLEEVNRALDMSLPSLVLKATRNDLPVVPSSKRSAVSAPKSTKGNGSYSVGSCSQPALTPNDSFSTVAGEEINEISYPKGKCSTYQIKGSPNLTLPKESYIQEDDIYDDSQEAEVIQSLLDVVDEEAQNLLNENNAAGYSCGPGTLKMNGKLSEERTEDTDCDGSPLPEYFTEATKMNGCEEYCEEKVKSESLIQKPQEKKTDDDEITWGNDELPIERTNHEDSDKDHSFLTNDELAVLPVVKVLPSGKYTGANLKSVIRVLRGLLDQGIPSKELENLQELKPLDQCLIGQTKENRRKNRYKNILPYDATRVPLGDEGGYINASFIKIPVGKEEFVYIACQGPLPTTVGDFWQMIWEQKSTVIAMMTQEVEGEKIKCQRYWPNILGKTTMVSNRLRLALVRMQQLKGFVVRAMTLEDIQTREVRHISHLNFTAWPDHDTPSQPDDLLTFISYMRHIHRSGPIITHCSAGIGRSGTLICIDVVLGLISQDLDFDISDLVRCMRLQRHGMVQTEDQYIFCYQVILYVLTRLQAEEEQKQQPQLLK

On to `COc1cc(CC(=O)NCC(NC(=O)C(CCCNC(=O)c2cccc(I)c2)NC(=O)C(Cc2ccc(C(F)(F)P(=O)(O)O)cc2)NC(=O)c2ccc(C)c(Br)c2)C(N)=O)ccc1O` (stereo not shown) [Compound 7], for which the IC50 is greater than 10000 nM against SHP2; greater than 10000 nM against FAP1; greater than 10000 nM against PTPH1; 830 nM at TC-PTP (read-out: IC50 (nM) TC-PTP); 830 nM at TC-PTP (read-out: IC50 for TC-PTP). The “insulin signaling (phospho-IR, phospho-Akt)” value in the data set with HepG2 hepatocytes was “augmented insulin signaling”. Also, the Cmax in data set [1] (ip, 20 mg/Kg intraperitoneal injection) is 4.5 µM; in data set [1] (5 mg/Kg intravenous injection, extrapolated to zero time), 25.7 µM. Moreover, the Cl/F in data set [1] (setting [3]) was 0.047 L/h. In addition, in data set [1] (setting [3]), the t1/2 turned out to be 1.8 h. Moreover, the half-life in data set [1] (plasma, ip, mouse, 20 mg/Kg intraperitoneal injection) is 1.8 h; in data set [1] (setting [4]), 0.8 h. The Vd/F in data set [1] (plasma, ip, mouse, 20 mg/Kg intraperitoneal injection, read-out: Vdss/F) worked out at 0.08 L. The compound further gave a clearance in data set [1] (setting [4]) of 0.233 mL/min. Further, the Vd in data set [1] (plasma, mouse, 5 mg/Kg intravenous injection, read-out: Vdss) turned out to be 0.007 L. Moreover, at TC-PTP (ratio of IC50 values), the “selectivity for PTP-MEG2 over TC-PTP” value is given as “more than 10 fold”. For the same compound, the “glucose clearance in glucose tolerance test” value in data set [2] (Day 9, at 15, 30, and 60 minutes) is given as “significantly enhanced glucose clearance”. For the same compound, the “improvement in glucose disposal (AUC)” value in data set [2] (Day 9, vs vehicle) is given as 21%. Moreover, the “insulin signaling (phospho-Akt, phospho-IR)” value with C2C12 myotubes is “augmented insulin signaling”.

Values taken from US9340574B2, “Inhibitors of protein tyrosine phosphatases” (Indiana University Research and Technology Corporation, priority 2012, dated 2016).
